For nine compounds, IC50 results are on record in BindingDB's records for doi:10.1016/j.bmcl.2006.06.076 (Fujisawa Pharmaceutical, 2006).

Assay [1] is described as follows: Agonist activity at human PGI2 receptor assessed as inhibition of ADP-induced platelet aggregation.
Assay [2] in a line: Agonist activity at rat PGI2 receptor assessed as inhibition of ADP-induced platelet aggregation.

As a reminder, the IC50 is the concentration that gives 50% inhibition. As for `O=C(O)COc1cccc(C[C@@H]2CCCC[C@H]2c2nc(-c3ccccc3)c(-c3ccccc3)o2)c1` [sodium 2-(3-(((1S,2R)-2-(4,5-diphenyloxazol-2-yl)cyclohexyl)methyl)phenoxy)acetate], in assay [1], the IC50 came to 0.114 µM. For `O=C(O)COc1cccc(CN2CCC[C@H]2c2nc(-c3ccccc3)c(-c3ccccc3)o2)c1` [sodium (S)-2-(3-((2-(4,5-diphenyloxazol-2-yl)pyrrolidin-1-yl)methyl)phenoxy)acetate], the results for the IC50 in assay [1] and in assay [2] were 0.058 µM and above 10 µM, respectively. As to `O=C(O)COc1cccc(Cc2ccccc2-c2nc(-c3ccccc3)c(-c3ccccc3)o2)c1` [sodium 2-(3-(2-(4,5-diphenyloxazol-2-yl)benzyl)phenoxy)acetate], the IC50 in assay [1] was determined as 0.93 µM.

For the compound `O=C(O)COc1cccc(CN2CCC[C@@H]2c2nc(-c3ccccc3)c(-c3ccccc3)o2)c1` [sodium (R)-2-(3-((2-(4,5-diphenyloxazol-2-yl)pyrrolidin-1-yl)methyl)phenoxy)acetate], the IC50 in assay [1] was determined as 0.048 µM; in assay [2] it was 0.7 µM.

Regarding `O=C(O)COc1cccc(CC2CCCC=C2c2nc(-c3ccccc3)c(-c3ccccc3)o2)c1` [Sodium; {3-[(R)-2-(4,5-diphenyl-oxazol-2-yl)-cyclohex-2-enylmethyl]-phenoxy}-acetate], the results for the IC50 in assay [1] and in assay [2] were 0.06 µM and 1.2 µM, respectively. Regarding `O=C(O)COc1cccc(C[C@@H]2CCC[C@@H]2c2nc(-c3ccccc3)c(-c3ccccc3)o2)c1` [sodium 2-(3-(((1S,2S)-2-(4,5-diphenyloxazol-2-yl)cyclopentyl)methyl)phenoxy)acetate], the IC50 in assay [1] was 0.053 µM.

As for `O=C(O)COc1cccc(C[C@@H]2CCCC[C@@H]2c2nc(-c3ccccc3)c(-c3ccccc3)o2)c1` [sodium 2-(3-(((1S,2S)-2-(4,5-diphenyloxazol-2-yl)cyclohexyl)methyl)phenoxy)acetate], the IC50 in assay [1] was 0.115 µM. Same read-out and setting: for `O=C(O)COc1cccc(CC2=C(c3nc(-c4ccccc4)c(-c4ccccc4)o3)CCCC2)c1` [sodium 2-(3-((2-(4,5-diphenyloxazol-2-yl)cyclohex-1-enyl)methyl)phenoxy)acetate] the value was 0.533 µM; for `O=C(O)COc1cccc(C[C@@H]2CCC[C@H]2c2nc(-c3ccccc3)c(-c3ccccc3)o2)c1` [sodium 2-(3-(((1S,2R)-2-(4,5-diphenyloxazol-2-yl)cyclopentyl)methyl)phenoxy)acetate], 0.039 µM.
